According to US8535736B2, “Methods and compositions for the treatment of infection or infectious colonization of the eyelid, ocular surface, skin or ear” (Advanced Vision Research, Inc, priority 2006, dated 2013):

Key:
[1] = tested on: Pseudomonas aeruginosa; experiment: Kill-time test (exposure time, survivors, log and percent reduction in CFU); format: cell-based; conditions: Linalool 0.75% alone, at one minute
Procedure: (§1) The following experiments were performed with a number of topical preparations to test the efficacy of each preparation against both gram negative and gram positive bacteria. The data is presented in tables showing the organism which the preparation was tested against, the exposure time, the number of survivors, the log reduction and the percent reduction in CFUs (Colony Forming Units).
(§2) Experiments were performed with tea tree oil, manuka oil, alpha-terpineol, and linalool in the EyeCI vehicle. The EyeCL vehicle (Advanced Vision Research, Woburn, Mass.) and OcuSoft Lid Scrub Foaming Eyelid Cleanser (CYNACON/OCUSOFT, Rosenberg, Tex.) were tested as controls.

[2] = tested on: Staphylococcus aureus; experiment: as above; format: cell-based; conditions: at 1 minute
Procedure: as §1, §2

[3] = tested on: P. aeruginosa; conditions: disc diffusion and broth dilution methods; cited from earlier work

| Compound | log of Pseudomonas killing [1] | log reduction in S. aureus killing ([2]; 0.75% linalool alone) | log reduction in S. aureus ([2]; 0.85% linalool) | activity against P. aeruginosa [3] |
| --- | --- | --- | --- | --- |
| C=CC(C)(O)CCC=C(C)C (centres unmarked) [linalool] | greater than 1 log | ~1 log | > 1 log | inactive |
| CC1=CCC(C(C)(C)O)CC1 (stereo not drawn) [alpha-terpineol] |  |  |  | inactive |
